# Bridge positions count the residues as written; N and C are the ends. Square brackets hold non-standard residues; d marks the D form. Peptide text beside a SMILES is read from it. * marks the point of attachment. Stearoyl = CCCCCCCCCCCCCCCCCC(=O)*; R8 = C=CCCCCCC[C@@](C)(N)C(=O)O; Lauroyl = CCCCCCCCCCCC(=O)*; S5 = C=CCCC[C@](C)(N)C(=O)O; Hexanoyl = CCCCCC(=O)*; Aib = CC(C)(N)C(=O)O
# What was measured:
# Escherichia coli DH5α = assay type: cell-based; settings: 16 h
# Method: (§1) Selected bacterial strains were obtained from Biological Resource Center, NITE (NBRC; Tokyo, Japan). E. coli DH5α was purchased from BioDynamics Laboratory, Inc. (Tokyo, Japan). The antimicrobial activities of the peptides against the gram-positive S. aureus and gram-negative E. coli DH5α, P. aeruginosa, and MDRP were measured using standard broth microdilution method as previously described. Briefly, the bacteria were inoculated and grown overnight at 37 °C on agar media for other organisms i and then collected with liquid media for other organisms ii, according to Japanese Pharmacopoeia, 17th Edition. Each peptide was 2-fold serially diluted with an initial concentration of 500 μM to a final concentration of 1 μM using PBS. Then, 10 μL of the peptide solution was added to each well of a sterile 96-well plate. Subsequently, 90 μL of inoculation with 10^4 colony forming units (CFUs) per mL were added to each well, and the plate was incubated at 35 °C for 16 h.
# Pseudomonas aeruginosa = assay type: cell-based; settings: 16 h
# Method: as §1
# Staphylococcus aureus = assay type: cell-based; settings: 16 h
# Method: as §1
# [1] = test system: multiple-drug resistant P. aeruginosa (MDRP); assay type: cell-based, Pseudomonas aeruginosa; settings: multiple-drug resistant (MDRP, 16 h)
# Method: as §1
# digestive enzymes = settings: cited from earlier work
# Text: Mag2 comprises cationic and hydrophobic amino acid residues and employs a helical structure […]. These properties are required for interaction with microbial membranes, and subsequent Mag2 insertions into membranes induce bacterial pore formation and ion efflux to exert their antimicrobial activity. The antimicrobial activity of AMPs targets the bacterial ...
# [2] = pH 7.4
smiles,measurement,setting,value
CC[C@H](C)[C@H](NC(=O)CN)C(=O)N[C@@H](CCCCN)C(=O)N[C@@H](CCCCN)C(=O)N[C@@H](Cc1ccccc1)C(=O)N[C@@H](CC(C)C)C(=O)N[C@@H](CCCCN)C(=O)N[C@@H](CO)C(=O)N[C@@H](C)C(=O)N[C@@H](CCCCN)C(=O)N[C@@H](CCCCN)C(=O)N[C@@]1(C)CCCC=CCCC[C@@](C)(C(=O)N[C@@H](CCCCN)C(N)=O)NC(=O)[C@H](C)NC(=O)[C@H](CCCCN)NC(=O)[C@H](C(C)C)NC1=O [Peptide 6] (H-GIKKFLKSAKK[S5]VKA[S5]K-NH2; staple 12-16),"MIC, Gram Negative, E.c. (DH5α)",Escherichia coli DH5α,1.56 µM
same,"MIC, Gram Negative, P.a.",Pseudomonas aeruginosa,1.56 µM
same,"MIC, Gram Positive, S.a.",Staphylococcus aureus,3.125 µM
same,"MIC, Gram Negative, MDRP",[1],0.78 µM
"CC[C@H](C)[C@H](NC(=O)CN)C(=O)N[C@@H](CCCCN)C(=O)N[C@@H](CCCCN)C(=O)N[C@@H](Cc1ccccc1)C(=O)N[C@@H](CC(C)C)C(=O)N[C@@H](CCCCN)C(=O)N[C@@H](CO)C(=O)NC(C)(C)C(=O)N[C@@H](CCCCN)C(=O)N[C@@H](CCCCN)C(=O)N[C@@H](Cc1ccccc1)C(=O)N[C@H](C(=O)N[C@@H](CCCCN)C(=O)NC(C)(C)C(=O)N[C@@H](Cc1ccccc1)C(=O)N[C@@H](CCCCN)C(N)=O)C(C)C [Peptide 1, reference compound] (H-GIKKFLKS[Aib]KKFVK[Aib]FK-NH2)","MIC, Gram Negative, E.c. (DH5α)",Escherichia coli DH5α,3.125 µM
same,"MIC, Gram Negative, P.a.",Pseudomonas aeruginosa,3.125 µM
same,"MIC, Gram Positive, S.a.",Staphylococcus aureus,12.5 µM
same,"MIC, Gram Negative, MDRP",[1],3.125 µM
same,Resistance against digestive enzymes,digestive enzymes,showed resistance against digestive enzymes
CC[C@H](C)[C@H](NC(=O)CN)C(=O)N[C@@H](CCCCN)C(=O)N[C@@H](CCCCN)C(=O)N[C@@]1(C)CCCC=CCCC[C@@](C)(C(=O)N[C@@H](CCCCN)C(=O)N[C@@H](CCCCN)C(=O)N[C@@H](Cc2ccccc2)C(=O)N[C@H](C(=O)N[C@@H](CCCCN)C(=O)N[C@@H](C)C(=O)N[C@@H](Cc2ccccc2)C(=O)N[C@@H](CCCCN)C(N)=O)C(C)C)NC(=O)[C@H](CO)NC(=O)[C@H](CCCCN)NC(=O)[C@H](CC(C)C)NC1=O [Peptide 3] (H-GIKK[S5]LKS[S5]KKFVKAFK-NH2; staple 5-9),"MIC, Gram Negative, E.c. (DH5α)",Escherichia coli DH5α,1.56 µM
same,"MIC, Gram Negative, P.a.",Pseudomonas aeruginosa,3.125 µM
same,"MIC, Gram Positive, S.a.",Staphylococcus aureus,3.125 µM
same,"MIC, Gram Negative, MDRP",[1],0.78 µM
CC[C@H](C)[C@H](NC(=O)CN)C(=O)N[C@@H](CCCCN)C(=O)N[C@@H](CCCCN)C(=O)N[C@@H](Cc1ccccc1)C(=O)N[C@@H](CC(C)C)C(=O)N[C@@H](CCCCN)C(=O)N[C@@]1(C)CCCC=CCCC[C@@](C)(C(=O)N[C@H](C(=O)N[C@@H](CCCCN)C(=O)N[C@@H](C)C(=O)N[C@@H](Cc2ccccc2)C(=O)N[C@@H](CCCCN)C(N)=O)C(C)C)NC(=O)[C@H](CCCCN)NC(=O)[C@H](CCCCN)NC(=O)[C@H](C)NC1=O [Peptide 4] (H-GIKKFLK[S5]AKK[S5]VKAFK-NH2; staple 8-12),"MIC, Gram Negative, E.c. (DH5α)",Escherichia coli DH5α,1.56 µM
same,"MIC, Gram Negative, P.a.",Pseudomonas aeruginosa,1.56 µM
same,"MIC, Gram Positive, S.a.",Staphylococcus aureus,6.25 µM
same,"MIC, Gram Negative, MDRP",[1],0.78 µM
CC[C@H](C)[C@H](NC(=O)CN)C(=O)N[C@@H](CCCCN)C(=O)N[C@@H](CCCCN)C(=O)N[C@@H](Cc1ccccc1)C(=O)N[C@@H](CC(C)C)C(=O)N[C@@H](CCCCN)C(=O)N[C@]1(C)CCCCCCC=CCCC[C@@](C)(C(=O)N[C@@H](Cc2ccccc2)C(=O)N[C@@H](CCCCN)C(N)=O)NC(=O)[C@H](CCCCN)NC(=O)[C@H](C(C)C)NC(=O)[C@H](Cc2ccccc2)NC(=O)[C@H](CCCCN)NC(=O)[C@H](CCCCN)NC(=O)[C@H](C)NC1=O [Peptide 8] (H-GIKKFLK[R8]AKKFVK[S5]FK-NH2; staple 8-15),"MIC, Gram Negative, E.c. (DH5α)",Escherichia coli DH5α,6.25 µM
same,"MIC, Gram Negative, P.a.",Pseudomonas aeruginosa,>50 µM
same,"MIC, Gram Positive, S.a.",Staphylococcus aureus,>50 µM
same,"MIC, Gram Negative, MDRP",[1],3.125 µM
CC[C@H](C)[C@H](NC(=O)CN)C(=O)N[C@@H](CCCCN)C(=O)N[C@@H](CCCCN)C(=O)N[C@@H](Cc1ccccc1)C(=O)N[C@@H](CC(C)C)C(=O)N[C@@H](CCCCN)C(=O)N[C@@H](CO)C(=O)N[C@]1(C)CCCCCCC=CCCC[C@@](C)(C(=O)N[C@@H](CCCCN)C(N)=O)NC(=O)[C@H](C)NC(=O)[C@H](CCCCN)NC(=O)[C@H](C(C)C)NC(=O)[C@H](Cc2ccccc2)NC(=O)[C@H](CCCCN)NC(=O)[C@H](CCCCN)NC1=O [Peptide 9] (H-GIKKFLKS[R8]KKFVKA[S5]K-NH2; staple 9-16),"MIC, Gram Negative, E.c. (DH5α)",Escherichia coli DH5α,3.125 µM
same,"MIC, Gram Negative, P.a.",Pseudomonas aeruginosa,6.25 µM
same,"MIC, Gram Positive, S.a.",Staphylococcus aureus,6.25 µM
same,"MIC, Gram Negative, MDRP",[1],3.125 µM
CC[C@H](C)[C@H](NC(=O)CN)C(=O)N[C@@H](CCCCN)C(=O)N[C@@H](CCCCN)C(=O)N[C@@H](Cc1ccccc1)C(=O)N[C@@H](CC(C)C)C(=O)N[C@@H](CCCCN)C(=O)N[C@@H](CO)C(=O)N[C@@]1(C)CCCC=CCCC[C@@](C)(C(=O)N[C@@H](CCCCN)C(=O)N[C@@H](C)C(=O)N[C@@H](Cc2ccccc2)C(=O)N[C@@H](CCCCN)C(N)=O)NC(=O)[C@H](Cc2ccccc2)NC(=O)[C@H](CCCCN)NC(=O)[C@H](CCCCN)NC1=O [Peptide 5] (H-GIKKFLKS[S5]KKF[S5]KAFK-NH2; staple 9-13),"MIC, Gram Negative, E.c. (DH5α)",Escherichia coli DH5α,1.56 µM
same,"MIC, Gram Negative, P.a.",Pseudomonas aeruginosa,6.25 µM
same,"MIC, Gram Positive, S.a.",Staphylococcus aureus,12.5 µM
same,"MIC, Gram Negative, MDRP",[1],3.125 µM
CCCCCCCCCCCCCCCCCC(=O)N[C@@]1(C)CCCC=CCCC[C@@](C)(C(=O)N[C@@H](CC(C)C)C(=O)N[C@@H](CCCCN)C(=O)N[C@@H](CO)C(=O)N[C@@H](C)C(=O)N[C@@H](CCCCN)C(=O)N[C@@H](CCCCN)C(=O)N[C@@H](Cc2ccccc2)C(=O)N[C@H](C(=O)N[C@@H](CCCCN)C(=O)N[C@@H](C)C(=O)N[C@@H](Cc2ccccc2)C(=O)N[C@@H](CCCCN)C(N)=O)C(C)C)NC(=O)[C@H](CCCCN)NC(=O)[C@H](CCCCN)NC(=O)[C@H]([C@@H](C)CC)NC1=O [Peptide C18-2] (Stearoyl-[S5]IKK[S5]LKSAKKFVKAFK-NH2; staple 1-5),"MIC, Gram Negative, E.c. (DH5α)",Escherichia coli DH5α,>50 µM
same,"MIC, Gram Negative, P.a.",Pseudomonas aeruginosa,>50 µM
same,"MIC, Gram Positive, S.a.",Staphylococcus aureus,>50 µM
same,"MIC, Gram Negative, MDRP",[1],>50 µM
same,Solubility in the aqueous buffer solution,[2],poor solubility
CC[C@H](C)[C@@H]1NC(=O)[C@@](C)(N)CCCC=CCCC[C@@](C)(C(=O)N[C@@H](CC(C)C)C(=O)N[C@@H](CCCCN)C(=O)N[C@@H](CO)C(=O)N[C@@H](C)C(=O)N[C@@H](CCCCN)C(=O)N[C@@H](CCCCN)C(=O)N[C@@H](Cc2ccccc2)C(=O)N[C@H](C(=O)N[C@@H](CCCCN)C(=O)N[C@@H](C)C(=O)N[C@@H](Cc2ccccc2)C(=O)N[C@@H](CCCCN)C(N)=O)C(C)C)NC(=O)[C@H](CCCCN)NC(=O)[C@H](CCCCN)NC1=O [Peptide 2] (H-[S5]IKK[S5]LKSAKKFVKAFK-NH2; staple 1-5),"MIC, Gram Negative, E.c. (DH5α)",Escherichia coli DH5α,1.56 µM
same,"MIC, Gram Negative, P.a.",Pseudomonas aeruginosa,1.56 µM
same,"MIC, Gram Positive, S.a.",Staphylococcus aureus,3.125 µM
same,"MIC, Gram Negative, MDRP",[1],1.56 µM
CCCCCCCCCCCC(=O)N[C@@]1(C)CCCC=CCCC[C@@](C)(C(=O)N[C@@H](CC(C)C)C(=O)N[C@@H](CCCCN)C(=O)N[C@@H](CO)C(=O)N[C@@H](C)C(=O)N[C@@H](CCCCN)C(=O)N[C@@H](CCCCN)C(=O)N[C@@H](Cc2ccccc2)C(=O)N[C@H](C(=O)N[C@@H](CCCCN)C(=O)N[C@@H](C)C(=O)N[C@@H](Cc2ccccc2)C(=O)N[C@@H](CCCCN)C(N)=O)C(C)C)NC(=O)[C@H](CCCCN)NC(=O)[C@H](CCCCN)NC(=O)[C@H]([C@@H](C)CC)NC1=O [Peptide C12-2] (Lauroyl-[S5]IKK[S5]LKSAKKFVKAFK-NH2; staple 1-5),"MIC, Gram Negative, E.c. (DH5α)",Escherichia coli DH5α,6.25 µM
same,"MIC, Gram Negative, P.a.",Pseudomonas aeruginosa,12.5 µM
same,"MIC, Gram Positive, S.a.",Staphylococcus aureus,6.25 µM
same,"MIC, Gram Negative, MDRP",[1],25 µM
CC[C@H](C)[C@H](NC(=O)CN)C(=O)N[C@@H](CCCCN)C(=O)N[C@@H](CCCCN)C(=O)N[C@]1(C)CCCCCCC=CCCC[C@@](C)(C(=O)N[C@H](C(=O)N[C@@H](CCCCN)C(=O)N[C@@H](C)C(=O)N[C@@H](Cc2ccccc2)C(=O)N[C@@H](CCCCN)C(N)=O)C(C)C)NC(=O)[C@H](CCCCN)NC(=O)[C@H](CCCCN)NC(=O)[C@H](C)NC(=O)[C@H](CO)NC(=O)[C@H](CCCCN)NC(=O)[C@H](CC(C)C)NC1=O [Peptide 7] (H-GIKK[R8]LKSAKK[S5]VKAFK-NH2; staple 5-12),"MIC, Gram Negative, E.c. (DH5α)",Escherichia coli DH5α,3.125 µM
same,"MIC, Gram Negative, P.a.",Pseudomonas aeruginosa,3.125 µM
same,"MIC, Gram Positive, S.a.",Staphylococcus aureus,25 µM
same,"MIC, Gram Negative, MDRP",[1],1.56 µM
CCCCCC(=O)N[C@@]1(C)CCCC=CCCC[C@@](C)(C(=O)N[C@@H](CC(C)C)C(=O)N[C@@H](CCCCN)C(=O)N[C@@H](CO)C(=O)N[C@@H](C)C(=O)N[C@@H](CCCCN)C(=O)N[C@@H](CCCCN)C(=O)N[C@@H](Cc2ccccc2)C(=O)N[C@H](C(=O)N[C@@H](CCCCN)C(=O)N[C@@H](C)C(=O)N[C@@H](Cc2ccccc2)C(=O)N[C@@H](CCCCN)C(N)=O)C(C)C)NC(=O)[C@H](CCCCN)NC(=O)[C@H](CCCCN)NC(=O)[C@H]([C@@H](C)CC)NC1=O [Peptide C6-2] (Hexanoyl-[S5]IKK[S5]LKSAKKFVKAFK-NH2; staple 1-5),"MIC, Gram Negative, E.c. (DH5α)",Escherichia coli DH5α,1.56 µM
same,"MIC, Gram Negative, P.a.",Pseudomonas aeruginosa,3.125 µM
same,"MIC, Gram Positive, S.a.",Staphylococcus aureus,1.56 µM
same,"MIC, Gram Negative, MDRP",[1],3.125 µM

# Source: PMC7830303, “Development of Antimicrobial Stapled Peptides Based on Magainin 2 Sequence” (Molecules, 2021)
